Measured values as given in ChEMBL document CHEMBL4507291 (2021).

Columns and labels:
[1] = system: Tyrosine-protein kinase ABL1 (Homo sapiens), P00519 [F317I]
[2] = molecular target: T1, Activin receptor type-1 (Homo sapiens) (UniProt Q04771)
T1 sequence (whole entry): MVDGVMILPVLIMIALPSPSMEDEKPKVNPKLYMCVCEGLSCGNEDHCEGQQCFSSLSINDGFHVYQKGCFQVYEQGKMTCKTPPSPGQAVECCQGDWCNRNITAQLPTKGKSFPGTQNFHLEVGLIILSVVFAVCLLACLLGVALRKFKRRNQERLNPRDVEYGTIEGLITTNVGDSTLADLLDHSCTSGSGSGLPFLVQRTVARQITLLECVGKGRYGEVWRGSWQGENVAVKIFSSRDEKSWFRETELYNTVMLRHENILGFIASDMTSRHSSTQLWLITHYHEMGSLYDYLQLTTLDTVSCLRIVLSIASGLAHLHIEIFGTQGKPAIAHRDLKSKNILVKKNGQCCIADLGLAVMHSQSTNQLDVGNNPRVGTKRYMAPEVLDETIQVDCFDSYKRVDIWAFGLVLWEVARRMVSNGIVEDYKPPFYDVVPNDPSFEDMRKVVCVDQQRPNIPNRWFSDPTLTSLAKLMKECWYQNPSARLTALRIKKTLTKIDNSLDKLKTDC

[3] = molecular target: T2, NUAK family SNF1-like kinase 1 (Homo sapiens) (UniProt O60285)
T2 sequence (whole entry): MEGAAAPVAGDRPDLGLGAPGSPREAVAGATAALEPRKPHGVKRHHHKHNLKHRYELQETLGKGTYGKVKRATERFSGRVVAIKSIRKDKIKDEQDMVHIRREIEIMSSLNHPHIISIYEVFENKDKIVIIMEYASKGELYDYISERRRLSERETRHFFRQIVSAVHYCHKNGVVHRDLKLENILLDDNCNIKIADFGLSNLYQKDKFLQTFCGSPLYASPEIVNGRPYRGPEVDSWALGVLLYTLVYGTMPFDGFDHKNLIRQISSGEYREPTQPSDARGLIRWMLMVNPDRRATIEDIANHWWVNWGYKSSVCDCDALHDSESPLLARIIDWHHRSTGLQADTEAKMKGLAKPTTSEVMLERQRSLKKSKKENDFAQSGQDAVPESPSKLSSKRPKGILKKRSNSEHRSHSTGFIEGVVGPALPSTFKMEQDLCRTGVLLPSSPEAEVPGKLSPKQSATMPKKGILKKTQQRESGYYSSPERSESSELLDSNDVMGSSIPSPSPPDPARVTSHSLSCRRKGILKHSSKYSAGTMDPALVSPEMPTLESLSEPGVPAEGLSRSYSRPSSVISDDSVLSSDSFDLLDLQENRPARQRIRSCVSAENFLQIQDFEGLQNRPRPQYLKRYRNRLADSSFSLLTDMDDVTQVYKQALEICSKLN

[4] = molecular target: T3, Ephrin type-B receptor 1 (Homo sapiens) (UniProt P54762)
T3 sequence (whole entry): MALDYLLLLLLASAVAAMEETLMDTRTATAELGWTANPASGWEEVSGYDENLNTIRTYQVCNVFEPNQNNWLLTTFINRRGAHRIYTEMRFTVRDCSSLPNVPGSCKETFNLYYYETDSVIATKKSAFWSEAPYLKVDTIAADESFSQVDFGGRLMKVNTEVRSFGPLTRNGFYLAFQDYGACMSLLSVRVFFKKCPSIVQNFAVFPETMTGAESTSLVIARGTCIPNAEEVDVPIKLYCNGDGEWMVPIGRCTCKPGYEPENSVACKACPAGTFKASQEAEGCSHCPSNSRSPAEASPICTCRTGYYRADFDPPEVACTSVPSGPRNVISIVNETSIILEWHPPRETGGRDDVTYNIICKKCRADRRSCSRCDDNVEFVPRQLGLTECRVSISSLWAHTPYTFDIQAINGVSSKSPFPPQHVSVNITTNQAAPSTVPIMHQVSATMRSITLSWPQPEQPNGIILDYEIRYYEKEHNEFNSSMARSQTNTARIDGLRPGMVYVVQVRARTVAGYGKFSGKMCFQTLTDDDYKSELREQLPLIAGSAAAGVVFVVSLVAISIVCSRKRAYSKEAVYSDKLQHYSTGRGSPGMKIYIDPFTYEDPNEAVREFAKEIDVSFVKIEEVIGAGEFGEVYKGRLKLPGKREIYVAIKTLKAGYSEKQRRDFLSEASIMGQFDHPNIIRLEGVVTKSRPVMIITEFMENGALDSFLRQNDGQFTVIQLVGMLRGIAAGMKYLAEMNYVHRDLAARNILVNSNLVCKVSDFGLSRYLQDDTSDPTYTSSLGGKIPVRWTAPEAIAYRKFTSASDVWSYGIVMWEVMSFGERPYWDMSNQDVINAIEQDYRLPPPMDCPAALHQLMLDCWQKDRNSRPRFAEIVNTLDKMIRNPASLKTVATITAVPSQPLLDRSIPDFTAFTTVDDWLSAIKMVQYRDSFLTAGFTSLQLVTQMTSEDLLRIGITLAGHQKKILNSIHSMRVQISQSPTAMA

[5] = system: Receptor-type tyrosine-protein kinase FLT3 (Homo sapiens), P36888 [K663Q]
[6] = molecular target: Receptor-type tyrosine-protein kinase FLT3 (Homo sapiens) (UniProt P36888)
[7] = molecular target: Tyrosine-protein kinase FRK (Homo sapiens) (UniProt P42685)
[8] = molecular target: T4, Mitogen-activated protein kinase 13 (Homo sapiens) (UniProt O15264)
T4 sequence (whole entry): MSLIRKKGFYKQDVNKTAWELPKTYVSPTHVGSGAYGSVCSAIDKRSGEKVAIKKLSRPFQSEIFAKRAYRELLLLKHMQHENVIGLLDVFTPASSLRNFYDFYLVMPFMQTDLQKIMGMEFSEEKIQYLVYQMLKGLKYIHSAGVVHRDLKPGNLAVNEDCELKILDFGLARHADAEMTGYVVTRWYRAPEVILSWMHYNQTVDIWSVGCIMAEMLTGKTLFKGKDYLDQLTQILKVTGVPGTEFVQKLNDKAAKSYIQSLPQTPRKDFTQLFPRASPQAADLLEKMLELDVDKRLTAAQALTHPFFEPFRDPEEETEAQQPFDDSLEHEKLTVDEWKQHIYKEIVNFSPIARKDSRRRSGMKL

[9] = molecular target: Ribosomal protein S6 kinase alpha-5 (Homo sapiens) (UniProt O75582)
[10] = Compound concentration 1000.0 nM
[11] = Compound concentration 100.0 nM

Measured: residual activity

Chain of Tyrosine-protein kinase ABL1 (Homo sapiens), P00519 [F317I] (P00519 whole entry F317I): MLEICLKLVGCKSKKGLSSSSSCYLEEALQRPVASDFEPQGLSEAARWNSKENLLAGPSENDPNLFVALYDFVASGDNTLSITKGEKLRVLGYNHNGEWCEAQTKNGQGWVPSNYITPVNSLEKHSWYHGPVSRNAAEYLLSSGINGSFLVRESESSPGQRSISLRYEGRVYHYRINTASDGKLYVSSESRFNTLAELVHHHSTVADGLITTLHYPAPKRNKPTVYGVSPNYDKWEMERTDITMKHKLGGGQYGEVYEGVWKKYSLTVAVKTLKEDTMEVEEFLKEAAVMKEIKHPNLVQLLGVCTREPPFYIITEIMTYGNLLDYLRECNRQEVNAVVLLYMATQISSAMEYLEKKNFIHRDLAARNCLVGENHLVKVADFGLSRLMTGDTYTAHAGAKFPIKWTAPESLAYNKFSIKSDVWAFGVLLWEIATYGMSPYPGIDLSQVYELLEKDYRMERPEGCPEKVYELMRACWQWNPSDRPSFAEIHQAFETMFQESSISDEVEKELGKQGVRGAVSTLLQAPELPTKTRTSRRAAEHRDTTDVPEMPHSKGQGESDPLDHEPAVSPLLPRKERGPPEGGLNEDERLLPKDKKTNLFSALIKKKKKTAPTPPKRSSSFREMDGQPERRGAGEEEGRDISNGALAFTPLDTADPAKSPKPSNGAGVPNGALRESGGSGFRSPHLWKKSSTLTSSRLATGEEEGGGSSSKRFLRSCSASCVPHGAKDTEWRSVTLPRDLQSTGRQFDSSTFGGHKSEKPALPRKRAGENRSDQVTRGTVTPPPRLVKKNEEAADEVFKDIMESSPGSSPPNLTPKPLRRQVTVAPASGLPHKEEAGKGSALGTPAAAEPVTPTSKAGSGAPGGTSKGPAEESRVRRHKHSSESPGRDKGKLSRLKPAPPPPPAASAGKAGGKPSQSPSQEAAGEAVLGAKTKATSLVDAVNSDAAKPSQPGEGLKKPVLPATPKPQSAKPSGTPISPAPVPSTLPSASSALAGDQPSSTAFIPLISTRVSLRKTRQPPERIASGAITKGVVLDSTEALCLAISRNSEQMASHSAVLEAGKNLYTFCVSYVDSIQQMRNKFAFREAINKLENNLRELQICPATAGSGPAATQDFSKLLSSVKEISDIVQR
Chain of Ribosomal protein S6 kinase alpha-5 (Homo sapiens) (O75582 whole entry, looked up): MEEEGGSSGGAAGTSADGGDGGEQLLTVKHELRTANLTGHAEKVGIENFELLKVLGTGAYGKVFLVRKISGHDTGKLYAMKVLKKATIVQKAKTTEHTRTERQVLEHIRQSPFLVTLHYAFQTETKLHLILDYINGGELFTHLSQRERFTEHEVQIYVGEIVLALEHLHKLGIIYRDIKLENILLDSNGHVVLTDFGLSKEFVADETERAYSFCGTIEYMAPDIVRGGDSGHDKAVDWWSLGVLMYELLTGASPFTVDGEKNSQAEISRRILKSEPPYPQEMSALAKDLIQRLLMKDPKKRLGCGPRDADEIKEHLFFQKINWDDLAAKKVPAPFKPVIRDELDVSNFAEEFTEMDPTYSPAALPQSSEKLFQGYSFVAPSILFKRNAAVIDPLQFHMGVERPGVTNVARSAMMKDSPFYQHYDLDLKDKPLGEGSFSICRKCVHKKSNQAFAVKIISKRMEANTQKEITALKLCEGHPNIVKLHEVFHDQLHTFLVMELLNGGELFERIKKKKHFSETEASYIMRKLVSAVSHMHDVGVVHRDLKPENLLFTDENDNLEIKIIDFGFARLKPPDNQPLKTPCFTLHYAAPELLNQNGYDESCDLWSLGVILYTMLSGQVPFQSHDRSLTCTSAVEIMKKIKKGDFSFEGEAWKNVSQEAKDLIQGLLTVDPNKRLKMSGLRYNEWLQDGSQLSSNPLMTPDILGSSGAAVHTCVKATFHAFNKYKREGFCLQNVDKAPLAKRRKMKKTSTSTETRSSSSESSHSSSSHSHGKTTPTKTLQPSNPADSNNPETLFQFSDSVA
Chain of Tyrosine-protein kinase FRK (Homo sapiens) (P42685 whole entry): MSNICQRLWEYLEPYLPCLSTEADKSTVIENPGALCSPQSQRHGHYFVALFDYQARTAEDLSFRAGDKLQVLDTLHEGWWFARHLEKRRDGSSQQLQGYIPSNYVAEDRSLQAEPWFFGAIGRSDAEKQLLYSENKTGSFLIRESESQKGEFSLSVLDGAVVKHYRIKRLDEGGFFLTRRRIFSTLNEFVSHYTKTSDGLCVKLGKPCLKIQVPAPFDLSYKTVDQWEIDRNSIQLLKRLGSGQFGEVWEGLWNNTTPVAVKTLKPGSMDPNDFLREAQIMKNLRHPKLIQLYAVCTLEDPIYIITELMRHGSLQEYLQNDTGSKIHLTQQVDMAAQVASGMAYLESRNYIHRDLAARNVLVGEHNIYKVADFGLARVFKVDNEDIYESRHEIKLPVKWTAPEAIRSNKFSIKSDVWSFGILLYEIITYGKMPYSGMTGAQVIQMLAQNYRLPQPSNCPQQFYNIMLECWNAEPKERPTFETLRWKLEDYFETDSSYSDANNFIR

C[C@@H]1CN(c2cc(-c3nn(C)c4ccc(OC5(C)CC5)cc34)ncn2)C[C@H](C)O1 [MLi-2-NC]
inactive: [1]; [10] 75% | [2]; [10] 96% | [3]; [10] 100% | [4]; [10] 99% | [5]; [10] 100% | [6]; [10] 77% | [7]; [10] 100% | [8]; [10] 100% | [9]; [10] 100%

C[C@@H]1CN(c2cc(-c3n[nH]c4ccc(OC5(C)CC5)cc34)ncn2)C[C@H](C)O1 [MLi-2]
inactive: [1]; [11] 80% | [2]; [11] 90% | [3]; [11] 92% | [4]; [11] 83% | [5]; [11] 100% | [6]; [11] 87% | [7]; [11] 100% | [8]; [11] 96% | [9]; [11] 97%
